A value given as a limit tells only on which side of the number the result lay.

One assay has as its system MV-4-11 cells. Description: MV-4-11 cell proliferation assay (ATPlite). The settings on record: 3 days, read-out: Cell based (IC50 μM) MV-4-11 (Flt-3). On the procedure: Compounds are assessed in a variety of cell based assays. For example BCR-FMS/BaF3, BCR-KIT/BaF3, M-NFS-60, M-07e, and BAC1.2F5 cell proliferation assays are used to assess inhibitory activity of Fms or Kit and MV-4-11 cell proliferation assay is used to assess inhibitory activity in Flt-3. Reagent and assay conditions are as follows: • BCR-FMS/BaF3 and BCR-KIT/BaF3 cells: • Maintained in RPMI containing 10% FBS, 1% PenStrep, 1% NEAA, and 1% L-Glutamine, supplemented with 1 mg/mL G418 and 5% WEHI-CM (or recombinant murine IL-3). • Confluent cells are split 1:50 to 1:100 every 3-4 days. • M-NFS-60 cells (ATCC #CRL-1838): • Maintained in RPMI containing 10% FBS, 1% Hepes, 1% NaPyruvate, and 0.45% Glucose, supplemented with 62 ng/mL murine M-CSF. • Confluent cells are split 1:20 every 3-4 days. • M-07e cells (DSMZ #ACC 104): • Maintained in IMDM containing 10% FBS, supplemented with either 200 ng/mL human SCF or […] SCF (R&D Systems 255-SC). • Confluent cells are split 1:5 to 1:10 every 3-4 days. • BAC1.2F5 cells: • Maintained in Alpha-MEM containing 10% Newborn Calf Serum (Invitrogen #26010-074) supplemented with 36 ng/mL murine M-CSF. • Confluent cells are split 1:4 every 3-4 days. • MV-4-11 cells: • Maintained in Iscove's Modified Dulbecco's Medium containing 10% FBS. • Confluent cells are split 1:4 every 3-4 days. On day 1, cells are counted, then centrifuged in a conical tube for 5 minutes at 1000 rpm. The supernatant is removed and cells are re-suspended as follows: • BCR-FMS/BaF3 and BCR-KIT/BaF3: resuspend in growth media+1 mg/mL G418 (without WEHI/IL-3) to 2×10^5 cells/mL. • M-NFS-60: resuspend in growth media +62 ng/mL murine M-CSF to 5×10^5 cells/mL. • M-07e: resuspend in growth media +200 ng/mL human SCF to 5×10^5 cells/mL. • BAC1.2F5: resuspend in growth media +36 ng/mL murine M-CSF to 1.4×10^5 cells/mL. • MV-4-11: resuspend in growth media +10% FBS to 5×10^5 cells/mL. The cells are plated (50 μL) in each well of a 96-well dish (Corning 3610) and incubated at 37° C. in 5% CO2 overnight, cells plated to a final concentration of cells as follows: • BCR-FMS/BaF3 and BCR-KIT/BaF3: 10,000 cells per well. • M-NFS-60: 25,000 cells per well. • M-07e: 25,000 cells per well. • BAC1.2F5: 7,000 cells per well. • MV-4-11: 25,000 cells per well. On day 2, compound at a maximum concentration of 5 mM is serially diluted 1:3 for a total of 8 point titration with DMSO as a control. A 1 μL aliquot of each dilution point is added to 249 μL growth media and 50 μL is added to a well containing cells, providing 10 μM compound for the maximum concentration point. The cells are incubated for 3 days at 37° C. in 5% CO2. On day 5, ATPlite 1 step Luminescence Assay System (Perkin Elmer #6016739) is brought to room temperature along with the cell cultures. ATPlite is added to each well as follows: • BCR-FMS/BaF3 and BCR-KIT/BaF3: 25 μL per well. • M-NFS-60: 25 μL per well. • M-07c: 40 μL per well. • BAC1.2F5: 50 μL per well. • MV-4-11: 40 μL per well. The cells are incubated at room temperature for 10 minutes, then luminescence is read on Safire reader. The measured luminescence correlates directly with cell number, such that the reading as a function of compound concentration is used to determine the IC50 value.
On to `Clc1cnc2[nH]cc(Cc3ccc(NCc4ccc(Cl)nc4)nc3)c2c1` [Compound P-2003], for which the IC50 is more than 0.1 µM.

Staying with this assay, now noted: Homo sapiens, MV4-11, 72 h, 3 days, read-out: Cell based (IC50 μM) MV-4-11 (Flt-3).
With `COc1ccc(CNc2ccc(Cc3c[nH]c4ncc(C)cc34)c(F)n2)cn1` [Compound P-2029, [6-Fluoro-5-(5-methyl-1H-pyrrolo[2,3-b]pyridin-3-ylmethyl)-pyridin-2-yl]-(6-methoxy-pyridin-3-ylmethyl)-amine], the IC50 was less than 0.1 µM.
As to `COc1cnc2[nH]cc(Cc3ccc(NCc4ccc(OC)nc4)nc3F)c2c1` [Compound P-2030, [6-Fluoro-5-(5-methoxy-1H-pyrrolo[2,3-b]pyridin-3-ylmethyl)-pyridin-2-yl]-(6-methoxy-pyridin-3-ylmethyl)-amine], the IC50 was less than 0.1 µM.
Still for that read-out and setting: the value for `Cc1cnc2[nH]cc(Cc3ccc(NCc4ccc(C(F)(F)F)nc4)nc3F)c2c1` [Compound P-2031, [6-Fluoro-5-(5-methyl-1H-pyrrolo[2,3-b]pyridin-3-ylmethyl)-pyridin-2-yl]-(6-trifluoromethyl-pyridin-3-ylmethyl)-amine] was less than 0.1 µM.
Regarding `COc1cnc2[nH]cc(Cc3ccc(NCc4ccc(Cl)cc4)nc3F)c2c1` [Compound P-2032, (4-Chloro-benzyl)-[6-fluoro-5-(5-methoxy-1H-pyrrolo[2,3-b]pyridin-3-ylmethyl)-pyridin-2-yl]-amine], the IC50 was less than 0.1 µM.
Turning to `COc1cnc2[nH]cc(Cc3ccc(NCc4ccccc4Cl)nc3F)c2c1` [Compound P-2034, (2-chloro-benzyl)-[6-fluoro-5-(5-methoxy-1H-pyrrolo[2,3-b]pyridin-3-ylmethyl)-pyridin-2-yl]-amine], the 50% inhibitory concentration (IC50) was more than 0.1 µM.
As to `COc1ccnc2[nH]cc(Cc3ccc(NCc4ccc(Cl)cc4)nc3F)c12` [Compound P-2037, (4-Chloro-benzyl)-[6-fluoro-5-(4-methoxy-1H-pyrrolo[2,3-b]pyridin-3-ylmethyl)-pyridin-2-yl]-amine], the IC50 is more than 0.1 µM.
As for `COc1ccc(CNc2ncc(Cc3c[nH]c4ncc(Cl)cc34)cn2)cn1` [Compound P-2038, [5-(5-Chloro-1H-pyrrolo[2,3-b]pyridin-3-ylmethyl)-pyrimidin-2-yl]-(6-methoxy-pyridin-3-ylmethyl)-amine], the IC50 was less than 0.1 µM.
In the case of `Fc1nc(NCc2ccc(Cl)cn2)ccc1Cc1c[nH]c2ncccc12` [Compound P-2044, (5-Chloro-pyridin-2-ylmethyl)-[6-fluoro-5-(1H-pyrrolo[2,3-b]pyridin-3-ylmethyl)-pyridin-2-yl]-amine], the IC50 was less than 0.1 µM.
For `COc1ccc(CNc2ncc(Cc3c[nH]c4ncc(C)cc34)cn2)cn1` [Compound P-2057, (6-Methoxy-pyridin-3-ylmethyl)-[5-(5-methyl-1H-pyrrolo[2,3-b]pyridin-3-ylmethyl)-pyrimidin-2-yl]-amine], the IC50 is less than 0.1 µM.
Turning to `COc1ncc(CNc2ccc(Cc3c[nH]c4ncc(Cl)cc34)c(F)n2)cc1F` [Compound P-2165, [5-(5-Chloro-1H-pyrrolo[2,3-b]pyridin-3-ylmethyl)-6-fluoro-pyridin-2-yl]-(5-fluoro-6-methoxy-pyridin-3-ylmethyl)-amine], the IC50 is more than 0.1 µM.

Values taken from patent US9096593B2, “Compounds and methods for kinase modulation, and indications therefor” (Plexxikon Inc., priority 2009, dated 2015).
